Where “and” joins values, the source holds several entries; their conditions need not be identical. Identical values can stand only once. Like-named read-outs stand apart in the source and are kept apart here.
Test: Pharmacokinetics in Sprague-Dawley rats (single dose i.v. and p.o.)
Type: in vivo, male Sprague-Dawley rats
Procedure: Pharmacokinetic studies were performed in male CD-1 (50 mg/kg i.p. or orally (p.o.)) or female nude mice (50 mg/kg i.v. or i.p.), male Sprague-Dawley rats (1, 5, 20 and 50 mg/kg i.v. and 100 mg/kg, p.o.), beagle dogs (20 mg/kg, i.v.) and cynomologus monkeys (20 mg/kg i.v.). Plasma TH302 concentrations were analyzed using a LC/MS method and the pharmacokinetic parameters computed using a noncompartmental method. Interspecies scaling was performed according to standard methods.
TH302 was dissolved in 50% PEG400/Saline to obtain a final concentration of 25 mg/mL, and then was further diluted to yield 25, 10, 2.5 and 0.5 mg/mL formulations of TH302 (pH The formulations were prepared just before dosing. The concentration of TH302 in dosing solution was confirmed by HPLC-UV. Male Sprague Dawley rats (body weight: 200 g to 230 g) were used in this study. Before the pharmacokinetic studies, animals were randomly assigned to four treatment groups cannulated in the carotid artery for serial blood sampling. All rats were administered a single intravenous bolus dose over one minute via the tail vein. The concentrations of TH302 in plasma were determined using a high performance liquid chromatography/mass spectrometry (HPLC/MS/MS) method. […]

[1] = rats, 1 mg/kg i.v. bolus, individual animals, 1 mg/kg
[2] = rats, 5 mg/kg i.v. bolus, individual animals, 5 mg/kg
[3] = rats, 20 mg/kg i.v. bolus, individual animals, 20 mg/kg
[4] = rats, 50 mg/kg i.v. bolus, individual animals, 50 mg/kg

Cn1c(COP(=O)(NCCBr)NCCBr)cnc1[N+](=O)[O-] [TH302]
AUC(0-inf) (male, Sprague-Dawley, rat, plasma, iv, 50 mg/kg, rats, 50 mg/kg i.v. bolus, MEAN): 8470 ng·h/mL | AUC(0-t) (male, Sprague-Dawley, rat, plasma, iv, 50 mg/kg, rats, 50 mg/kg i.v. bolus, MEAN, read-out: AUC(0-t)): 8460 ng·h/mL | Cmax (male, Sprague-Dawley, rat, plasma, iv, 50 mg/kg, rats, 50 mg/kg i.v. bolus, MEAN, read-out: Cmax): 35500 ng/mL | MRT (male, Sprague-Dawley, rat, plasma, iv, 50 mg/kg, rats, 50 mg/kg i.v. bolus, MEAN, read-out: MRT): 17.4 min | AUC(0-inf) (male, Sprague-Dawley, rat, plasma, iv, 50 mg/kg, rats, 50 mg/kg i.v. bolus, individual animals): 8830 ng·h/mL | AUC(0-t) (male, Sprague-Dawley, rat, plasma, iv, 50 mg/kg, rats, 50 mg/kg i.v. bolus, individual animals, read-out: AUC(0-t)): 8830 ng·h/mL | clearance (male, Sprague-Dawley, rat, plasma, iv, 50 mg/kg, rats, 50 mg/kg i.v. bolus, individual animals, read-out: CL (converted)): 94.3 mL/min/kg | Cmax (male, Sprague-Dawley, rat, plasma, iv, 50 mg/kg, rats, 50 mg/kg i.v. bolus, individual animals, read-out: Cmax): 37200 ng/mL | MRT (male, Sprague-Dawley, rat, plasma, iv, 50 mg/kg, rats, 50 mg/kg i.v. bolus, individual animals, read-out: MRT): 17.4 min | Vd (male, Sprague-Dawley, rat, plasma, iv, 50 mg/kg, rats, 50 mg/kg i.v. bolus, individual animals, read-out: Vss): 1.63 L/kg | AUC (male, Sprague-Dawley, rat, plasma, iv, 50 mg/kg, rats, i.v. bolus, up to 8 mg/kg human equivalent daily dose, read-out: exposure of TH302, AUC): ~8500 ng·h/mL | clearance (male, Sprague-Dawley, rat, plasma, iv, rats, i.v. dose 1-50 mg/kg, range of means, read-out: Mean Cl): 78.2 to 102 mL/min/kg | Vd (male, Sprague-Dawley, rat, plasma, iv, rats, i.v. dose 1-50 mg/kg, range of means, read-out: mean Vss): 1.67 to 5.09 L/kg | half-life (male, Sprague-Dawley, rat, plasma, iv, rats, i.v. dose 1-50 mg/kg, range of means, read-out: mean terminal plasma t1/2): 79.2 to 262 min | Tmax (male, Sprague-Dawley, rat, plasma, iv, rats, 1 mg/kg i.v. bolus, individual animals): 1.8 min | Tmax (male, Sprague-Dawley, rat, plasma, iv, rats, 5 mg/kg i.v. bolus, individual animals): 1.8 min | Tmax (male, Sprague-Dawley, rat, plasma, iv, rats, 20 mg/kg i.v. bolus, individual animals): 1.8 min | Tmax (male, Sprague-Dawley, rat, plasma, iv, rats, 50 mg/kg i.v. bolus, individual animals): 1.8 min | Vβ (rats, 1 mg/kg i.v. bolus, MEAN): 13.55 L/kg | AUC(0-t) [1]: 273.70 ng·h/mL and 202.22 ng·h/mL | AUC(0-∞) [1]: 282.01 ng·h/mL and 203.34 ng·h/mL | CL [1]: 59.2 mL/min/kg | Cmax [1]: 990.12 ng/mL and 732.20 ng/mL | MRT [1]: 61.8 min | T1/2 [1]: 130 min and 131 min | Vss [1]: 2.82 L/kg | Vβ [1]: 14.19 L/kg and 11.03 L/kg and 15.45 L/kg | Vβ (rats, 5 mg/kg i.v. bolus, MEAN): 30.66 L/kg | AUC(0-t) [2]: 868.22 ng·h/mL | AUC(0-∞) [2]: 919.39 ng·h/mL | CL [2]: 90.7 mL/min/kg | Cmax [2]: 3803.81 ng/mL | MRT [2]: 27 min and 81.6 min | T1/2 [2]: 73.2 min and 377 min | Vβ [2]: 11.99 L/kg and 49.33 L/kg | Vβ (rats, 20 mg/kg i.v. bolus, MEAN): 41.04 L/kg | AUC(0-t) [3]: 3380.61 ng·h/mL and 3597.80 ng·h/mL | AUC(0-∞) [3]: 3387.13 ng·h/mL and 3618.51 ng·h/mL | CL [3]: 92.2 mL/min/kg | Cmax [3]: 12009.10 ng/mL and 15053.50 ng/mL | MRT [3]: 24.6 min and 22.2 min | T1/2 [3]: 564 min and 64.8 min and 159 min | Vss [3]: 1.68 L/kg | Vβ [3]: 92.86 L/kg and 9.16 L/kg and 21.10 L/kg | Vβ (rats, 50 mg/kg i.v. bolus, MEAN): 11.41 L/kg | AUC(0-t) [4]: 8482.72 ng·h/mL and 8083.24 ng·h/mL | AUC(0-∞) [4]: 8488.15 ng·h/mL and 8102.61 ng·h/mL | CL [4]: 98.2 mL/min/kg and 103 mL/min/kg | Cmax [4]: 37277.10 ng/mL and 32033.40 ng/mL | MRT [4]: 18 min and 15.6 min | T1/2 [4]: 46.2 min and 56.4 min and 134 min | Vss [4]: 1.68 L/kg and 1.70 L/kg | Vβ [4]: 6.28 L/kg and 7.99 L/kg and 19.94 L/kg | time of mean peak plasma concentration (rats, 100 mg/kg p.o., first sampled time point): 15 min | linearity of pharmacokinetics (rats, 1, 5, 20 and 50 mg/kg i.v.): linear pharmacokinetics
